Common to all, as to test: Chemokine glycan microarray binding assay
Common to all, as to details: maximum RFU set as 100% binding, average across 2 glycan concentrations and 3 chemokine dilutions (n=6)

Assay [1] addresses T1, CXCL10 (Homo sapiens, UniProt P02778).
T1 sequence (P02778 22-98): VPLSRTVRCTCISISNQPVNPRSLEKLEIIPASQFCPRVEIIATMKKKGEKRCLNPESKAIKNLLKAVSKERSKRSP
How it is done: (§1) Microarray Studies: The compounds of the present invention were covalently immobilized on epoxy group collated glass slides. Slides were rehydrated with dH2O and incubated for 30 min in a staining dish with 50° C. prewarmed ethanolamine (0.05 M) in Tris-HCl (0.1 M, pH 9.0) to block the remaining reactive epoxy groups on the slide surface, then washed with 50° C. prewarmed dH2O. Slides were centrifuged at 200 g for 3 min, then fitted with the ProPlate Multi-Array 16-well slide module (Grace Bio-lab P37001) to divide into the subarrays (blocks). Slides were washed with PBST (0.1% Tween 20), aspirated, and blocked with 200 μL/subarray of blocking buffer (PBS pH 7.3+1% w/v ovalbumin) for 1 h at RT with gentle shaking. Next, the blocking solution was aspirated and 100 μL/block of primary chemokines diluted in PBS pH 7.3+1% w/v ovalbumin were incubated with gentle shaking for 2 hours at RT. Slides were washed 4 times with PBST, then with PBS (without Tween-20) for 2 min. Bound antibodies were detected by incubating with biotinylated secondary detections (1 ng/μL) diluted in PBS, 200 μL/block at RT for 1 h. Slides were washed 4 times with PBST, then with PBS (without Tween-20) for 2 min and biotinylated antibodies were detected with Cy3-SA ([…]). Slides were washed 4 times with PBST, then with PBS for 10 min followed by removal from the ProPlate Multi-Array slide module and immediately dipping in a staining dish with dH2O for 10 min with shaking. The slides were then centrifuged at 200 g for 3 min, and the dry slides immediately scanned. Binding was tested at three serial dilutions, then detected with the relevant biotinylated secondary antibody (1 μg/mL) followed by Cy3-strepavidin (1.5 μg/mL). Arrays were scanned and RFUs were calculated of chemokines binding to 100 μM glycans printed at four replicates. Rank binding of chemokines (each at three dilutions) to glycans printed at four replicates each was calculated and summarized in Table 1. For each binding assay per printed block, the maximum RFU was determined and set as 100% binding. Then, binding to all other glycans in the same block was ranked in comparison to the maximal binding, and average rank binding (and SEM) for each glycan across the three examined concentrations of each chemokine was calculated. This analysis allowed to compare the glycan-binding profiles of the different chemokines and dissect their binding preferences.
(§2) Table 1. Chemokine glycan microarray binding assay. Binding was tested at 3 serial dilutions, then detected with the relevant biotinylated secondary antibody (1 μg/ml) followed by Cy3-Strepavidin (1.5 μg/ml) (Table SX). Arrays were scanned, relative fluorescent units (RFU) obtained, and maximum RFU determined and set as 100% binding. Then rank binding (per printed glycan per concentration, per each chemokine dilution, per printed block) was determined. Since each glycans was printed at 2 concentration, 100% binding was set separately for each concentration. Then, binding to all the other glycans at the same concentration was ranked in comparison to the maximal binding, and the average rank binding and SEM for each glycan across the two glycan concentrations and three examined dilutions of each chemokine was calculated (n=6, 2 glycan concentrations across 3 chemokine dilutions). This analysis allowed to compare the glycan binding profiles of the different chemokines and dissect their binding preferences. The mean rank is shown as a heatmap of all the examined binding assays together (red highest, blue lowest and white 50th percentile of ranking).

For assay [2], the target named is CCL13 (Homo sapiens, UniProt Q99616). Here is the method: as §1, §2
The target of assay [3] is T2, CCL28 (Homo sapiens, UniProt Q9NRJ3).
T2 sequence (Q9NRJ3 20-127): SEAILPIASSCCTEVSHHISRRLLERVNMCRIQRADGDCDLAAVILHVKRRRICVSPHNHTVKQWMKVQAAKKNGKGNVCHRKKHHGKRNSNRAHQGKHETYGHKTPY
Here is the method: as §1, §2

Assay [4] deals with T3, CCL5 (Homo sapiens, UniProt P13501).
T3 sequence (P13501 24-91): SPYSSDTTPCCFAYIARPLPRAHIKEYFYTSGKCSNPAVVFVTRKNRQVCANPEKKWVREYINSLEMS
Here is the method: as §1, §2

The target in assay [5] is T4, CXCL8 (Homo sapiens, UniProt P10145).
T4 sequence (P10145 21-99): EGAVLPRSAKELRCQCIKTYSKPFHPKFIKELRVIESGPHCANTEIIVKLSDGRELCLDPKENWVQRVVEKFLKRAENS
Here is the method:
as §1, §2

Assay [6] has as its target CXCL12 (Homo sapiens, UniProt P48061). Here is the method:
as §1, §2

In assay [7] the target is CCL7 (Homo sapiens, UniProt P80098). How it is done:
as §1, §2

Assay [8] concerns the target T5, CCL21 (Homo sapiens, UniProt O00585).
T5 sequence (O00585 24-134): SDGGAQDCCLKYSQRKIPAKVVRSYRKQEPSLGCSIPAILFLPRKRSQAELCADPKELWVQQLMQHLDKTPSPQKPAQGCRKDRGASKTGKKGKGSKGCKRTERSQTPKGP
Here is the method: as §1, §2

The target of assay [9] is CCL2 (Homo sapiens, UniProt P13500). How it is done: as §1, §2
CCL2, sequence (P13500 24-99, species assumed): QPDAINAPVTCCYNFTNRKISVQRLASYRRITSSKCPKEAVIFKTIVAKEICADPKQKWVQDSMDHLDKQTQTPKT

CXCL12, sequence (P48061 22-93, species assumed): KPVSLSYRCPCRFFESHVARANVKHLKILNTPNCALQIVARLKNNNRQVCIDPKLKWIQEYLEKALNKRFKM
CCL13, sequence (Q99616 17-98, species assumed): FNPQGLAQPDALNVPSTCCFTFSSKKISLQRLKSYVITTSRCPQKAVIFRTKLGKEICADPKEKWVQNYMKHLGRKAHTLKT
CCL7, sequence (P80098 24-99, species assumed): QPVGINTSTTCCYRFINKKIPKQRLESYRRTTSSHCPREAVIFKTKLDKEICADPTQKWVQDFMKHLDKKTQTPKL

For the compound `NCCOCCO[C@@H]1OC(C(=O)O)[C@@H](O)C(O)C1O` (stereo partly drawn) [Example 1, Ethaoxy-2-aminoethoxyl-O-α-L-idopyranoside Uronic Acid], the “mean rank binding to CXCL10” value in assay [1] is listed as 47%. For the same compound, the “mean rank binding to CCL13” value in [2] was determined as 74%. In addition, in [3], the “mean rank binding to CCL28” value is listed as 46%. Besides, the “mean rank binding to CCL5” value in [4] was 2%. Also, the “mean rank binding to CXCL8” value in assay [5] is reported as 17%. Further, the “mean rank binding to CXCL12” value in assay [6] amounted to 62%. The “mean rank binding to CCL7” value in assay [7] is recorded as 30%. In assay [8], the “mean rank binding to CCL21” value was found to be 52%. For the same compound, the “mean rank binding to CCL2” value in [9] turned out to be 4%.

In the case of `NCCOCCO[C@@H]1OC(C(=O)O)[C@@H](O[C@@H]2OC(C(=O)O)[C@@H](O[C@@H]3OC(C(=O)O)[C@@H](O[C@@H]4OC(C(=O)O)[C@@H](O)C(O)C4O)C(O)C3O)C(O)C2O)C(O)C1O` (stereo partly drawn) [Example 10, Ethoxy-2-aminoethoxyl-O-(α-L-idopyranosyl Uronic Acid-α(1→4)-α-L-idopyranosyluronic acid-α(1→4)-α-L-idopyranosyluronic acid-α(1→4))-α-L-idopyranoside Uronic Acid], the “mean rank binding to CXCL10” value in [1] stood at 96%. In assay [2], the “mean rank binding to CCL13” value worked out at 88%. The “mean rank binding to CCL28” value in assay [3] worked out at 76%. Further, the “mean rank binding to CCL5” value in assay [4] stood at 86%. Moreover, in [5], the “mean rank binding to CXCL8” value was 83%. For the same compound, in assay [6], the “mean rank binding to CXCL12” value is 98%. The “mean rank binding to CCL7” value in [7] is on record as 87%. In addition, the “mean rank binding to CCL21” value in [8] turned out to be 86%. Further, in assay [9], the “mean rank binding to CCL2” value is listed as 69%.

As for `NCCOCCO[C@@H]1O[C@@H](C(=O)O)[C@@H](O[C@@H]2O[C@@H](C(=O)O)[C@@H](O[C@@H]3O[C@@H](C(=O)O)[C@@H](OS(=O)(=O)O)[C@H](O)[C@H]3O)[C@H](O)[C@H]2O)[C@H](O)[C@H]1O` [Example 8, Ethoxy-2-aminoethoxyl-O-((4-O-sulfonato)-α-L-idopyranosyl Uronic Acid-α(1→4)-L-idopyranosyl Uronic Acid-α(1→4))-α-L-idopyranoside Uronic Acid], the “mean rank binding to CXCL10” value in [1] was 23%. For the same compound, in assay [2], the “mean rank binding to CCL13” value is recorded as 72%. The “mean rank binding to CCL28” value in assay [3] amounted to 54%. Also, the “mean rank binding to CCL5” value in assay [4] is 10%. Also, in assay [5], the “mean rank binding to CXCL8” value is on record as 13%. Moreover, the “mean rank binding to CXCL12” value in [6] is 45%. Besides, the “mean rank binding to CCL7” value in assay [7] was found to be 12%. Besides, in [8], the “mean rank binding to CCL21” value came to 60%. In assay [9], the “mean rank binding to CCL2” value was 0%.

As to `NCCCO[C@@H]1O[C@@H](C(=O)O)[C@@H](O[C@H]2O[C@H](CO)[C@@H](O[C@@H]3O[C@@H](C(=O)O)[C@@H](O[C@H]4O[C@H](CO)[C@@H](O)[C@H](OS(=O)(=O)O)[C@H]4N)[C@H](O)[C@H]3O)[C@H](OS(=O)(=O)O)[C@H]2N)[C@H](O)[C@H]1O` [Example 22, 3-Aminopropyl-O-[(2-amino-3-O-sulfonato-2-deoxy-α-D-glucopyranosyl)-(1→4)-O-(α-L-idopyranosyluronate)-(1→4)-O-(2-amino-3-O-sulfonato-2-deoxy-α-D-glucopyranosyl)]-(1→4)-O-α-L-idopyranosiduronate], the “mean rank binding to CXCL10” value in [1] worked out at 65%. Also, the “mean rank binding to CCL13” value in [2] turned out to be 58%. Further, the “mean rank binding to CCL28” value in assay [3] turned out to be 62%. For the same compound, in assay [4], the “mean rank binding to CCL5” value turned out to be 20%. Moreover, in assay [5], the “mean rank binding to CXCL8” value was 51%. Moreover, in assay [6], the “mean rank binding to CXCL12” value came out at 84%. For the same compound, the “mean rank binding to CCL7” value in assay [7] was determined as 78%. For the same compound, the “mean rank binding to CCL21” value in assay [8] turned out to be 83%. Also, the “mean rank binding to CCL2” value in assay [9] is listed as 28%.

As for `CC(=O)NC1C(O)[C@H](O)C(COS(=O)(=O)O)O[C@@H]1O[C@@H]1C(C(=O)O)O[C@@H](O[C@@H]2C(COS(=O)(=O)O)O[C@H](O[C@@H]3C(C(=O)O)O[C@@H](OCCCN)C(O)C3O)C(NC(C)=O)C2O)C(O)C1O` (stereo partly drawn) [Example 24, 3-Aminopropyl-O-[(2-acetamido-6-O-sulfonato-2-deoxy-α-D-glucopyranosyl)-(1→4)-O-(α-L-idopyranosyluronate)-(1→4)-O-(2-acetamido-6-O-sulfonato-2-deoxy-α-D-glucopyranosyl)]-(1→4)-O-α-L-idopyranosiduronate], in assay [1], the “mean rank binding to CXCL10” value is on record as 41%. The “mean rank binding to CCL13” value in assay [2] was found to be 81%. Also, the “mean rank binding to CCL28” value in assay [3] is recorded as 79%. The “mean rank binding to CCL5” value in [4] was 24%. In addition, the “mean rank binding to CXCL8” value in assay [5] turned out to be 19%. The “mean rank binding to CXCL12” value in assay [6] is recorded as 66%. In addition, the “mean rank binding to CCL7” value in assay [7] is 73%. In addition, the “mean rank binding to CCL21” value in assay [8] stood at 79%. Further, the “mean rank binding to CCL2” value in assay [9] is given as 13%.

In the case of `NCCCO[C@@H]1OC(C(=O)O)[C@@H](O[C@H]2OC(CO)[C@@H](O[C@@H]3OC(C(=O)O)[C@@H](O[C@H]4OC(CO)[C@@H](O)C(O)C4N)C(O)C3O)C(O)C2N)C(O)C1O` (stereo partly drawn) [Example 15, 3-Aminopropyl-O-[(2-amino-2-deoxy-α-D-glucopyranosyl)-(1→4)-O-(α-L-idopyranosyluronate)-(1→4)-O-(2-amino-2-deoxy-α-D-glucopyranosyl)]-(1→4)-O-α-L-idopyranosiduronate], the “mean rank binding to CXCL10” value in assay [1] is reported as 39%. Also, the “mean rank binding to CCL13” value in assay [2] turned out to be 64%. Further, the “mean rank binding to CCL28” value in [3] was found to be 36%. In assay [4], the “mean rank binding to CCL5” value is given as 3%. Moreover, the “mean rank binding to CXCL8” value in [5] stood at 13%. Further, the “mean rank binding to CXCL12” value in assay [6] was found to be 51%. For the same compound, the “mean rank binding to CCL7” value in [7] came to 45%. The “mean rank binding to CCL21” value in assay [8] came to 62%. For the same compound, the “mean rank binding to CCL2” value in assay [9] turned out to be 3%.

Take `CC(=O)N[C@H]1[C@@H](O[C@H]2[C@H](O)[C@@H](O)[C@H](OCCCN)O[C@H]2C(=O)O)O[C@H](COP(=O)(O)O)[C@@H](O[C@@H]2O[C@@H](C(=O)O)[C@@H](O[C@H]3O[C@H](COP(=O)(O)O)[C@@H](O)[C@H](O)[C@H]3NC(C)=O)[C@H](O)[C@H]2O)[C@@H]1O` [Example 26]: the “mean rank binding to CXCL10” value in assay [1] is given as 48%. Besides, in assay [2], the “mean rank binding to CCL13” value was 70%. Moreover, the “mean rank binding to CCL28” value in assay [3] was found to be 39%. Further, the “mean rank binding to CCL5” value in assay [4] worked out at 5%. Moreover, in assay [5], the “mean rank binding to CXCL8” value was determined as 10%. Further, the “mean rank binding to CXCL12” value in assay [6] worked out at 75%. Further, the “mean rank binding to CCL7” value in assay [7] came out at 40%. Also, the “mean rank binding to CCL21” value in assay [8] stood at 81%. In assay [9], the “mean rank binding to CCL2” value came out at 1%.

For the origin of these results see patent US20260207654A1, “HEPARAN SULFATE AND ITS MIMETICS AS CHEMOKINE INHIBITORS” (INDIAN INSTITUTE OF SCIENCE EDUCATION AND RESEARCH, priority 2021, published 2026).
